Test results: patent publication US20240225971A1 (Genomatica, Inc., priority 2021, published 2024)
≈ marks a conversion by molar mass, not a printed value. Read-outs that look alike come from different tables or passages of the source.

What was measured:
physchem [1] = assay: physchem
Source text: (§1) Also included is the molecular weight of each of the fragrance ingredients. Not determinable (ND).

[2] = Clarity of fragrance ingredient in bioderived 1,3-BG by visual observation
Procedure: Clarity for each of the fragrance ingredients (10% in bioderived 1,3-BG) was determined by visual observations after compounding and blending the fragrance ingredient with bioderived 1,3-BG and identified as clear, slightly haze, cloudy, particles, or separation.
Clarity for each of the fragrance ingredients (at 1% in bioderived 1,3-BG) was determined by visual observations after compounding and blending the fragrance ingredient with bioderived 1,3-BG and identified as clear, slightly haze, cloudy, particles, or separation.

[3] = Flash point of fragrance ingredients; assay type: physicochemical
Source text: as §1

[4] = Vapor pressure of fragrance ingredients
Source text: as §1

physchem [5] = assay: physchem; remark: listed apart in the source
Source text: The term “fragrance composition” or “composition,” as used herein, represents a composition containing one or more fragrance ingredients described here and formulated with a physiologically acceptable diluent or solvent, used interchangeably here. In a fragrance composition, or composition that has a fragrance, such as a perfume, 20%-40% of the observable liquid may be comprised of a diluent, i.e., the delivery system for scents of the fragrance ingredients. The “log P” value, as used here, indicates whether a substance or fragrance ingredient will be absorbed by humans, animals, plants, or living tissue; diffused or disseminated by water.
as §1

[6] = 10% ingredient in bioderived 1,3-BG, clear, slightly haze, cloudy, particles, or separation

COc1ccc(C=O)cc1 [Anisic Aldehyde]
Water Solubility (physchem [1]): 4290.000 µg/mL | Clarity 10% [2, 6]: Clear | Flash Point [3]: 116 °C | Vapor Pressure [4]: 1 mm hg

CC/C(=C\CC1CC=C(C)C1(C)C)CO (stereo not shown) [Bacdanol]
Water Solubility (physchem [1]; 25° C.): 17.000 µg/mL | Clarity 10% [2, 6]: Clear | Flash Point [3]: 199 °C | Vapor Pressure [4]: 0.00028 mm hg | logP (physchem [5]): 4.3

O=C1CCCCCCCCCCCC(=O)OCCO1 [Ethylene Brassylate]
solubility (physchem [1]; water, 25 °C): 1.72 µg/mL (≈ 6.36 µM) | Clarity 10% [2, 6]: Cloudy | Flash Point [3]: 110 °C | Vapor Pressure [4]: 0 mm hg | logP (physchem [5]): 2.77

CC(=O)OCc1ccccc1 [Benzyl Acetate]
Clarity 10% [2, 6]: Clear | Flash Point [3]: 91 °C | Vapor Pressure [4]: 0.177 mm hg

CC1(C)CCC[C@]2(C)[C@H]3CCO[C@]3(C)CC[C@@H]12 [Ambrox Super (Ambroxan), Ambroxan]
Clarity 10% [2, 6]: Particles | Flash Point [3]: 100 °C | Vapor Pressure [4]: 0.009 mm hg

CC(=O)OC(C)(C)C1CC=C(C)CC1 (stereo not shown) [Terpinyl Acetate]
Water Solubility (physchem [1]; 25° C.): 18.970 µg/mL | Clarity 1% [2]: Clear | Flash Point [3]: 100 °C | Vapor Pressure [4]: 0.058 mm hg | logP (physchem [5]): 3.59

CC(=O)C1=C(C)C2CC3(C1)C(C)CCC3C2(C)C (stereo not shown) [Vertofix Coeur]
Clarity 10% [2, 6]: Cloudy | Flash Point [3]: 100 °C | Vapor Pressure [4]: 0.000084 mm hg | logP (physchem [5]): 5.6

CCOC(=O)CC1(C)OCCO1 [Fructone]
Water Solubility (physchem [1]; 25° C.): 100.000 µg/mL | Clarity 10% [2, 6]: Clear | Flash Point [3]: 93 °C | Vapor Pressure [4]: 0.219 mm hg | logP (physchem [5]): 0.982

CC(=O)C(C)=CC1C(C)=CCCC1(C)C (stereo not shown) [Methyl Ionone Gamma]
Water Solubility (physchem [1]): 2.980 µg/mL | Clarity 10% [2, 6]: Cloudy | Flash Point [3]: 110 °C | Vapor Pressure [4]: 0.006 mm hg | logP (physchem [5]): 4.315

CCCCCCCCCCCC=O [Aldehyde C-12 Lauric]
Water Solubility (physchem [1]; 25° C.): 4.649 µg/mL | Clarity 10% [2, 6]: Clear | Flash Point [3]: 116 °C | Vapor Pressure [4]: 0.034 mm hg | logP (physchem [5]): 4.989

CC(=O)C1(C)CC2=C(CCCC2(C)C)CC1C (stereo not shown) [Iso E Super]
Clarity 10% [2, 6]: Cloudy | Flash Point [3]: 111 °C | Vapor Pressure [4]: 0.001 mm hg | logP (physchem [5]): 4.71

CCC(CC)C(=O)N(C)c1cccc(C)c1 [Paradisamide]
Water Solubility (physchem [1]; 25° C.): 46.430 µg/mL | Clarity 10% [2, 6]: Clear | Flash Point [3]: 138 °C | Vapor Pressure [4]: 0.0038 mm hg | logP (physchem [5]): 3.295

C=C(C)[C@@H]1CCC2=CC(=O)C[C@@H](C)[C@]2(C)C1 [Nootkatone]
solubility (physchem [1]; 25 °C, water): 2.38 µg/mL (≈ 10.9 µM) | Clarity 10% [2, 6]: Clear | Flash Point [3]: 110 °C | Vapor Pressure [4]: 0.000358 mm hg | logP (physchem [5]): 3.77

N#C/C=C/c1ccccc1 [Cinnamalva]
Water Solubility (physchem [1]): 1067.000 µg/mL | Clarity 10% [2, 6]: Clear | Flash Point [3]: 94 °C | Vapor Pressure [4]: 0.023 mm hg | logP (physchem [5]): 1.84

CC(C)CCCC(C)(C)O [Dimetol]
Water Solubility (physchem [1]; 25° C.): 777.000 µg/mL | Clarity 10% [2, 6]: Clear | Flash Point [3]: 63 °C | Vapor Pressure [4]: 0.33 mm hg | logP (physchem [5]): 2.976

O=Cc1ccc2c(c1)OCO2 [Heliotropine]
Water Solubility (physchem [1]): 3500.000 µg/mL | Clarity 1% [2]: Clear | Clarity 10% [2]: Clear | Flash Point [3]: 110 °C | Vapor Pressure [4]: 0.003 mm hg | logP (physchem [5]): 1.05

CCCCCCCCCC(C)C=O (stereo not shown) [Aldehyde C-12 MNA]
Water Solubility (physchem [1]; 25° C.): 5.372 µg/mL | Clarity 10% [2, 6]: Clear | Flash Point [3]: 69 °C | Vapor Pressure [4]: 4.834 mm hg | logP (physchem [5]): 4.834

c1ccc(COCc2ccccc2)cc1 [Dibenzyl Ether]
solubility (physchem [1]; water, 25 °C): 40 µg/mL (≈ 202 µM) | Clarity 10% [2, 6]: Cloudy | Flash Point [3]: 93 °C | Vapor Pressure [4]: 0.00103 mm hg | logP (physchem [5]): 3.31

CC1C(C)(C)C2=C(C(=O)CCC2)C1(C)C (stereo not shown) [Cashmeran]
Water Solubility (physchem [1]; 25° C.): 5.937 µg/mL | Clarity 10% [2, 6]: Clear | Flash Point [3]: 94 °C | Vapor Pressure [4]: 0.003 mm hg | logP (physchem [5]): 4.5

CC1COCc2cc3c(cc21)C(C)(C)C(C)C3(C)C (stereo not shown) [Galaxolide]
solubility (physchem [1]; 25 °C, water): 0.194 µg/mL (≈ 0.751 µM) | Clarity 10% [2, 6]: Separation | Flash Point [3]: 104 °C | Vapor Pressure [4]: 0.000414 mm hg | logP (physchem [5]): 5.92

C=CC(C)(O)CCC=C(C)C (stereo not shown) [Linalool]
Clarity 10% [2, 6]: Clear | Flash Point [3]: 75 °C | Vapor Pressure [4]: 0.016 mm hg

C=CC(C)(CCC=C(C)C)OC(C)=O (stereo not shown) [Linalyl Acetate]
solubility (physchem [1]; 25 °C, water): 20.1 µg/mL | Clarity 1% [2]: Clear | Flash Point [3]: 94 °C | Vapor Pressure [4]: 0.116 mm hg | logP (physchem [5]): 3.93

CC1CC=CCCCCCCCCCC(=O)C1 (stereo not shown) [Muscenone]
Water Solubility (physchem [1]; 25° C.): 0.346 µg/mL | Clarity 10% [2, 6]: Cloudy | Flash Point [3]: 100 °C | Vapor Pressure [4]: 0.1 mm hg | logP (physchem [5]): 4.88

CCOc1cc(C=O)ccc1O [Ethyl Vanillin]
Water Solubility (physchem [1]): 2820.000 µg/mL | Clarity 10% [2, 6]: Clear | Flash Point [3]: 127 °C | Vapor Pressure [4]: 0.001 mm hg

CC1=CC(C)C(C=O)CC1 (stereo not shown) [Cyclal C/Triplal]
Water Solubility (physchem [1]): 311.500 µg/mL | Clarity 10% [2, 6]: Clear | Flash Point [3]: 66 °C | Vapor Pressure [4]: 0.578 mm hg | logP (physchem [5]): 3

C=CCOC(=O)COCCC(C)C [Allyl Amyl Glycolate]
Water Solubility (physchem [1]; 25° C.): 510.700 µg/mL | Flash Point [3]: 93 °C | Vapor Pressure [4]: 0.04 mm hg | logP (physchem [5]): 2.7

COc1ccc(COC(C)=O)cc1 [Anisyl Acetate]
Water Solubility (physchem [1]; 25° C.): 782.900 µg/mL | Clarity 1% [2]: Clear | Clarity 10% [2]: Clear | Flash Point [3]: 135 °C | Vapor Pressure [4]: 0.021 mm hg | logP (physchem [5]): 1.887

CCCCCCCCCC=O [Aldehyde C-10]
Water Solubility (physchem [1]; 25° C.): 43.520 µg/mL | Flash Point [3]: 82 °C | Vapor Pressure [4]: 0.207 mm hg | logP (physchem [5]): 3.97

CC12CCC(CC1)C(C)(C)O2 [Eucalyptol]
solubility (physchem [1]; water, 25 °C): 3500 µg/mL (≈ 22700 µM) | Clarity 10% [2, 6]: Clear | Flash Point [3]: 50 °C | Vapor Pressure [4]: 1.9 mm hg | logP (physchem [5]): 2.74

CC(=O)OCCC(C)C [Isoamyl Acetate]
Water Solubility (physchem [1]; 25° C.): 2000.000 µg/mL | Clarity 10% [2, 6]: Clear | Flash Point [3]: 38 °C | Vapor Pressure [4]: 5.6 mm hg

CC/C=C\CCO [Cis-3-Hexenol]
Clarity 10% [2, 6]: Clear | Flash Point [3]: 44 °C | Vapor Pressure [4]: 1.039 mm hg | logP (physchem [5]): 1.7

CC(C)=CCCC(C)=CC=O [Citral]
Clarity 10% [2, 6]: Clear | Flash Point [3]: 98 °C | Vapor Pressure [4]: 0.2 mm hg

CC=Cc1ccc(OC)cc1 [Anethole]
Clarity 10% [2, 6]: Cloudy | Flash Point [3]: 110 °C | Vapor Pressure [4]: 0.069 mm hg

COc1cc(C=O)ccc1O [Vanillin]
solubility (physchem [1]; water, 25 °C): 6880 µg/mL (≈ 45200 µM) | Clarity 10% [2, 6]: Clear | Flash Point [3]: 153 °C | Vapor Pressure [4]: 0.002 mm hg

C=CCCCCCCCCC=O [Aldehyde C-11 Undecylenic]
Water Solubility (physchem [1]; 25° C.): 30.000 µg/mL | Flash Point [3]: 76 °C | Vapor Pressure [4]: 0.039 mm hg | logP (physchem [5]): 4.072
